{"source": "patent US10030103B2", "about": "“Stable helical ionic polypeptides” (The Board of Trustees of the University of Illinois, priority 2010, dated 2018)", "key": {"[1]": {"assay": "Circular dichroism (CD) analysis of polypeptide conformation in aqueous solution", "format": "physicochemical", "protocol": "CD measurements were carried out on a JASCO J-700 CD spectrometer in a quartz disc with a light path length of 1 cm at 0.01-0.1 mg/mL in DI water at room temperature or under conditions otherwise indicated.\nThe CD study was performed on a JASCO J-700 or on a J-720 CD spectrometer. Polymer samples were prepared at concentrations of 0.01-0.1 mg/mL at pH 3 unless otherwise specified. The solution was placed in a quartz cell with light path of 0.2 cm. The mean residue molar ellipticity of each polymer was calculated based on the measured apparent ellipticity, the molar concentration of polymer and the m.w. of the repeating unit. The CD experiments were carried out at room temperature unless otherwise specified. For temperature-dependency study, the temperature of the sample chamber which hosts the quartz cell was controlled by a water bath (from 4° C. to 70° C.).\nThe samples were equilibrated at corresponding temperature for at least 10 min before the CD measurements. For the sample preparations, the polymers were dissolved in DI water or in a solution containing NaCl, urea or methanesulfonic acid (MSA). For the pH-dependency study, the pH of the polymer solution was tuned by the addition of a concentrated HCl or NaOH solution.\nThe CD study was performed on a JASCO J-700 and J-720 CD spectrometer. Polymer samples were prepared at a concentration of 0.05 mg/mL in general unless otherwise specified. The solution was placed in a quartz disc with light path of 0.5 cm. Mean residue molar ellipticity was calculated based on the ellipticity obtained, concentration of polymer and the molar weight of the repeating unit.\nThe CD study was performed on a JASCO J-700 and J-720 CD spectrometer. The polymer samples were prepared at concentrations of 0.01-0.1 mg/mL in general unless otherwise specified. The solution was placed in a quartz cell with a path length of 0.5 cm. […] For the helix-temperature dependency study, the temperature of the sample chamber where the quartz cell was placed was controlled by a water bath (from 4° C. to 70° C.). […]"}, "[2]": {"test_system": "DHSα E. coli", "assay": "Inhibition of bacterial growth in Luria broth (OD650)", "format": "cell-based", "conditions": "up to 100 μg/mL, seven hours, 37° C.", "description": "Luria broth (1×) was prepared containing known concentrations of the three polymers between 0 μg/mL and 100 μg/mL and dispensed (200 μL aliquots) in triplicate into the wells of a clear polystyrene 96-well plate. Separate wells containing the antibiotic kanamycin at 50 μg/mL were also prepared as a control. The wells were then inoculated with DHSα E. coli and left to grow at 37° C. with agitation. After seven hours, the plate was removed and the absorbance of 650 nm light was measured for each well (OD650). In general, as bacterial growth was inhibited, the resulting OD650 decreased. The average OD650 was then plotted for each sample (FIG. 50)."}, "[3]": {"test_system": "COS-7 cells", "assay": "In vitro transfection of COS-7 cells with polymer/DNA complexes (pCMV-Luc, luciferase expression)", "format": "cell-based", "conditions": "listed as PVBLG40-1", "description": "DNA/polymer complexes were prepared at room temperature by dissolving DNA (0.35 μg) in 150 mM NaCl, 20 mM HEPES (175 μL). An equal volume of 25-kDa branched PEI, lipofectamine 2000 or PVBLGn-X in 150 mM NaCl, 20 mM HEPES was added to achieve the desired weight ratio. The final complexes were incubated at room temperature for 15 min before further use. […] The transfection medium was replaced with fresh serum-supplemented growth medium 4 h post-transfection.\nLuciferase expression was quantified 24 h post-transfection using the Promega Bright-Glo luciferase assay system (Promega, Madison, Wis.). Luciferase activity was measured in relative light units (RLU) using a PerkinElmer plate reader with luminescence capabilities (Waltham, Mass.). Results were normalized to total cell protein using the Pierce BCA protein assay kit (Rockford, Ill.). Transfections were performed in triplicate."}}, "data": [{"substance": "Poly(γ-(4-aminoethylthiopropoxyl)-benzyl-L-glutamate) [(PAOBLG-AET)10]", "values": [{"measurement": "pH dependence of −[θ]222 / helical conformation", "setting": "[1]; pH range as stated in the value", "result": "remained unchanged when the solution's pH was increased from 1 to 8"}]}, {"substance": "poly(γ-(4-(1-hexanol-6-aminomethyl))benzyl-L-glutamate) [PVBLG-1]", "values": [{"measurement": "antimicrobial properties", "setting": "[2]", "result": "Neither PVBLGn-1 nor PVBLGn-8 displayed antimicrobial properties"}]}, {"substance": "poly(γ-(4-(1-hexanol-6-aminomethyl))benzyl-L-glutamate) [(PVBLG-1)40]", "values": [{"measurement": "transfection efficiency", "setting": "[3]", "result": "on par with 25-kDa branched polyethylenimine (PEI)"}]}, {"substance": "poly-L-lysine [(PLL)60]", "values": [{"measurement": "Helical content", "setting": "[1]; Table 9-2, (−[θ]222 + 3000)/39,000", "result": 0, "unit": "%"}]}, {"substance": "poly(L-lysine) [PLL75]", "values": [{"measurement": "conformation by CD", "setting": "[1]; aqueous solution, pH 1", "result": "completely random coil conformation"}]}]}
